Measurements from paper PMC7395068, “The evolution of strategies to minimise the risk of human drug-induced liver injury (DILI) in drug discovery and development” (Archives of Toxicology, 2020).
Where two headings read alike, the source gives them in different places.

What was measured:
HepG2 cells = details: cited from earlier work
HepaRG spheroids = experiment: Combined HCI (HCS) and cellular ATP 3D assay in HepaRG spheroids; details: for AC50 / minimal effective concentration: Homo sapiens
[1] = cited from earlier work
[2] = tested on: THLE-Null and THLE-3A4 cells; details: In vitro Assay; ref Gustafsson 2014; cited from earlier work
PHH spheroids = details: cited from earlier work
[3] = tested on: primary human hepatocytes, NIH3T3 fibroblasts, BSEP, CYP3A4; details: cited from earlier work
[4] = tested on: THLE or HepG2 cells, isolated mitochondria, BSEP; details: cited from earlier work
[5] = Plasma free fraction (fu) and unbound Cmax (Cmax,u); format: in vitro ADME, human; details: unbound plasma Cmax
[6] = ref Chen 2011; cited from earlier work
[7] = plasma free fraction; cited from earlier work
PHH [8] = details: In vitro Assay; ref Albrecht 2019; cited from earlier work
hLiMTs [9] = experiment: Combined HCI (HCS) and cellular ATP 3D assay in hLiMTs; details: for AC50 / minimal effective concentration: Homo sapiens
PHH [10] = details: cited from earlier work
[11] = tested on: HepG2 cells, primary human hepatocytes; details: In vitro Assay; ref Garside 2014; cited from earlier work
[12] = tested on: isolated mouse liver mitochondria; details: In vitro Assay; ref Porceddu 2012; cited from earlier work
rBsep = details: In vitro Assay; ref Dawson 2012; cited from earlier work
HepG2 = tested on: HepG2; design: method as in Albrecht 2019; details: In vitro Assay; ref Albrecht 2019; cited from earlier work
[13] = cited from earlier work; remark: listed apart in the source
hLiMTs [14] = details: cited from earlier work
[15] = read-out: Human plasma Cmax; total plasma Cmax.tot, median of 9 literature references; cited from earlier work
[16] = tested on: HepG2 C3A spheroid, BSEP, Glu/Gal in HepG2 cells, bioactivation; details: cited from earlier work
[17] = In vitro Assay, ref Persson 2013
[18] = Microtissue model structural based (HCI), combined HCS and ATP, MEC < 25 × Cmax.tot cut-off
[19] = In vitro Assay, ref Schadt 2015
[20] = Modeled in vitro assays (cytotoxicity, mitochondrial dysfunction, BSEP), ref Aleo et al. 2019
[21] = In vitro Assay, ref Proctor 2017

- HepaRG <25x Avg Cmax ATP (HepaRG spheroids; HepaRG, ATP endpoint, cut-off <25x Avg Cmax): +ve
- HepaRG <100x Avg Cmaxu ATP (HepaRG spheroids; HepaRG, ATP endpoint, cut-off <100x Avg Cmaxu): -ve
- HepaRG <25x Avg Cmax HCS (HepaRG spheroids; HepaRG, HCS endpoints, cut-off <25x Avg Cmax): +ve
- HepaRG <100x Avg Cmaxu HCS (HepaRG spheroids; HepaRG, HCS endpoints, cut-off <100x Avg Cmaxu): -ve
- HepaRG <25x Avg Cmax All (HepaRG spheroids; HepaRG, all endpoints (ATP and HCS), cut-off <25x Avg Cmax): +ve
- HepaRG Cmax max All (HepaRG spheroids; HepaRG, all endpoints, Cmax max used): +ve
- HepaRG Cmax min All (HepaRG spheroids; HepaRG, all endpoints, Cmax min used): +ve
- HepaRG <10 uM All (HepaRG spheroids; HepaRG, all endpoints, cut-off <10 uM): -ve
- HepaRG <100x Avg Cmaxu All (HepaRG spheroids; HepaRG, all endpoints, cut-off <100x Avg Cmaxu): -ve
- Human plasma Cmax,u [5]: 0.048 µM
- hLiMTs <25x Avg Cmax ATP (hLiMTs [9]; hLiMTs, ATP endpoint, cut-off <25x Avg Cmax): +ve
- hLiMTs <100x Avg Cmaxu ATP (hLiMTs [9]; hLiMTs, ATP endpoint, cut-off <100x Avg Cmaxu): -ve
- hLiMTs <25x Avg Cmax HCS (hLiMTs [9]; hLiMTs, HCS endpoints, cut-off <25x Avg Cmax): +ve
- hLiMTs <100x Avg Cmaxu HCS (hLiMTs [9]; hLiMTs, HCS endpoints, cut-off <100x Avg Cmaxu): -ve
- hLiMTs <25x Avg Cmax All (hLiMTs [9]; hLiMTs, all endpoints (ATP and HCS), cut-off <25x Avg Cmax): +ve
- hLiMTs Cmax max All (hLiMTs [9]; hLiMTs, all endpoints, Cmax max used): +ve
- hLiMTs Cmax min All (hLiMTs [9]; hLiMTs, all endpoints, Cmax min used): +ve
- hLiMTs <10 uM All (hLiMTs [9]; hLiMTs, all endpoints, cut-off <10 uM): -ve
- hLiMTs <100x Avg Cmaxu All (hLiMTs [9]; hLiMTs, all endpoints, cut-off <100x Avg Cmaxu): -ve
SMILES: Cc1ccc(C(=O)c2cc(O)c(O)c([N+](=O)[O-])c2)cc1 [tolcapone, reference compound]
- Cluser analysis (HepG2 cells; [17]): -VE
- Structural based (HCI) (HepG2 cells; [17]): +VE
- DILI in vitro assay prediction, Persson (2013) (HepG2 cells; Structural based (HCI), HepG2, ref Persson et al. 2013): -VE
- AC50 (HepaRG spheroids; HepaRG, read-out: ATP endpoint AC50): 35.3 µM
- minimal effective concentration (HepaRG spheroids; HepaRG, read-out: ATP endpoint MEC): 20.5 µM
- AC50 (HepaRG spheroids; HepaRG, read-out: HCS endpoint AC50): 36.1 µM
- minimal effective concentration (HepaRG spheroids; HepaRG, read-out: HCS endpoint MEC): 21 µM
- DILI prediction HepaRG spheroids (HCS-MEC) (HepaRG spheroids; [18]): +VE (MEC < 25 × Cmax.tot cut-off)
- DILI severity category (Chen et al. [2016]) ([1]; LTKB DILIrank category, ref Chen et al. 2016): Most
- DILI severity category (Chen 2016) ([1]; human DILI classification, LTKB DILIrank, ref Chen et al. 2016): Most
- DILI severity category ([1]; human DILI severity, ref Chen et al.): Most
- DILI +VE (5-8), DILI -VE (-4) ([1]; ref Chen 2016): +VE
- DILI severity category ([1]; ref Chen 2016): vMost-DILI-Concern
- THLE-Null [2]: +VE
- THLE-Null/3A4 [2]: -VE
- hLiMTs ATP <20 x Cmax (PHH spheroids; In vitro Assay, ref Vorrink 2018): +VE (IC20 < 20 × Cmax.tot cut-off)
- DILI in vitro assay prediction, Vorrink (2018) (PHH spheroids; PHH spheroids, ATP, 14 days, IC20 < 20 × Cmax.tot, ref Vorrink et al. 2018): +VE (IC20 < 20 × Cmax.tot cut-off)
- DILI in vitro assay prediction, Schadt (2015) ([3]; BSEP & Metabolism based, ref Schadt et al. 2015): +VE
- Cellular toxicity (3T3 cells) [3, 19]: +VE
- Combined Assay [3, 19]: +VE
- GSH adduct HML [3, 19]: +VE
- Hepatocyte cellular toxicity [3, 19]: +VE
- MitoTox 3T3 [3, 19]: -VE
- TDI CYP3A4 [3, 19]: -VE
- hBSEP inhibition [3, 19]: +VE
- Partition Hybrid HRM Score ([4]; In vitro Assay, ref Aleo 2019): +VE
- Ro2 Hybrid HRM Score ([4]; In vitro Assay, ref Aleo 2019): +VE
- Partition Hybrid HRM Score ≥4, Aleo (2019) [4, 20]: +VE (Partition Hybrid HRM Score ≥4)
- Partition Hybrid HRM Score ≥8, Aleo (2019) [4, 20]: +VE (Partition Hybrid HRM Score ≥8)
- Rule of Two hybrid HRM Score ≥3, Aleo (2019) [4, 20]: +VE (Rule of Two hybrid HRM Score ≥3)
- Rule of Two hybrid HRM Score ≥8, Aleo (2019) [4, 20]: +VE (Rule of Two hybrid HRM Score ≥8)
- DILI Score (FDA) (1-8) [6]: 8
- fu [7]: 0.001
- Cytotoxicity PHH 48 hrs (PHH [8]): +VE
- AC50 (hLiMTs [9]; read-out: ATP endpoint AC50): 161 µM
- minimal effective concentration (hLiMTs [9]; read-out: ATP endpoint MEC): 114 µM
- AC50 (hLiMTs [9]; read-out: HCS endpoint AC50): 60.8 µM
- minimal effective concentration (hLiMTs [9]; read-out: HCS endpoint MEC): 24.1 µM
- DILI prediction hLiMTs (HCS-MEC) (hLiMTs [9]; [18]): +VE (MEC < 25 × Cmax.tot cut-off)
- PHH/100xCmax, Proctor (2017) (PHH [10]; 2D PHH, ATP, IC50 < 100 × Cmax.tot, ref Proctor et al. 2017): +VE (IC50 < 100 × Cmax.tot)
- PHH/100uM, Proctor (2017) (PHH [10]; 2D PHH, ATP, IC50 threshold 100 µM, ref Proctor et al. 2017): -VE
- PHH ATP <100uM (PHH [10]; [21]): +VE (IC50 threshold of 100 µM)
- Cluster 1-6 +VE Assay [11]: +VE
- in vitro data EC2<=1x Cmax [12]: +VE
- in vitro data EC20<=2uM [12]: -VE
- Inhibition of rBsep cutoff<1& cmax u>.2 (rBsep): +VE
- Inhibition of rBsep cutoff<3 (rBsep): +VE
- Cytotoxicity HepG2 48 hrs (HepG2): +VE
- Assigned DILI category ([13]; Chen et al. 2016 or literature alignment, ref Chen et al. 2016): 3
- In vivo DILI ([13]; ref Albrecht 2019): +VE
- In vivo DILI ([13]; ref Aleo 2019): +VE
- In vivo DILI ([13]; ref Dawson 2012): +VE
- In vivo DILI ([13]; ref Garside 2014): +VE
- In vivo DILI ([13]; ref Gustafsson 2014): +VE
- In vivo DILI ([13]; ref Persson 2013): +VE
- In vivo DILI ([13]; ref Porceddu 2012): +VE
- In vivo DILI ([13]; ref Proctor 2017): +VE
- In vivo DILI ([13]; ref Schadt 2015): +VE
- In vivo DILI ([13]; ref Vorrink 2018): +VE
- In vivo DILI ([13]; ref Williams 2019): +VE
- hLiMTs ATP <100uM (hLiMTs [14]; [21]): +VE (IC50 threshold of 100 µM)
- hLiMTs/100xCmax, Proctor (2017) (hLiMTs [14]; hLiMTs, ATP, IC50 < 100 × Cmax.tot, ref Proctor et al. 2017): +VE (IC50 < 100 × Cmax.tot)
- hLiMTs/100uM, Proctor (2017) (hLiMTs [14]; hLiMTs, ATP, IC50 threshold 100 µM, ref Proctor et al. 2017): +VE (IC50 threshold of 100 µM)
- Cmax [15]: 47.6 µM
- Bayesian Machine Learning DILI prediction, Williams (2019) ([16]; Bayesian modeling, ref Williams et al. 2019): +VE
- Bayesian Machine Learning ([16]; In vitro Assay, ref Williams 2019): +VE
